Holding throughout (format): binding, S. equisimilis
Assay [1] deals with T1, RelSeq 1–385 (Streptococcus dysgalactiae subsp. equisimilis, UniProt Q54089).
T1 construct: His-tag (C); host or cells: BL21(DE3) Escherichia coli
Description: Thermal shift assay on RelSeq 1–385. The source says:
Thermal shift is an experimental technique in which protein thermal denaturation is monitored following the increase in fluorescence reported by a protein-bound dye. In particular, an environment-sensitive hydrophobic dye (e.g., SYPRO Orange) binds to hydrophobic regions that become progressively exposed during thermal denaturation, resulting in an increase in its fluorescence emission. Since the binding of small molecules (e.g., fragments) to the protein can cause conformational changes that affect its melting temperature, this technique allows the screening of several compounds in a range of concentrations without consuming sizeable amounts of protein.
We therefore evaluated the affinity of the 18 fragments selected from our in silico screening for the bifunctional protein RelSeq by titration of the protein in a thermal shift assay (Table 1).
(§1) Thermal shift assays on selected fragments vs. RelSeq constructs. The binding of the selected fragments to RelSeq constructs was assessed by titration of the protein in thermal shift assays, performed using a Step One Real-Time PCR system (Thermo Fisher Scientific, Waltham, MA, USA). Assays were performed in 20 mM Tris-HCl, pH 8, containing 150 mM NaCl. The final protein concentration was kept at 0.5 mg/mL for all RelSeq constructs, and the fluorescent Protein Thermal Shift Dye (Thermo Fisher Scientific, Waltham, MA, USA) was used to monitor protein unfolding within the excitation/emission ranges 470–505/540–700 nm. […] Assays were performed in triplicate at a final volume of 15 µL in MicroAmp™ Fast Optical 48-well reaction plates (Thermo Fisher Scientific, Waltham, MA, USA) sealed with adhesive films. Plates were heated from 25 to 90 °C with a heating rate of 0.5 °C/min. The Kd of protein–ligand complexes engaged by RelSeq constructs with the tested fragments was calculated from the plot of protein melting temperature variations as a function of fragment concentrations with the equation for Ligand Binding (1 site) provided with the software GraFit 5.0 (Erithacus Software, Staines, UK).

The target in assay [2] is T2, RelSeq SYNTH (residues 79–385) (Streptococcus dysgalactiae subsp. equisimilis, UniProt Q54089).
T2 construct: His-tag (C); made in house; host or cells: BL21(DE3) Escherichia coli
T2 sequence (Q54089 79-385): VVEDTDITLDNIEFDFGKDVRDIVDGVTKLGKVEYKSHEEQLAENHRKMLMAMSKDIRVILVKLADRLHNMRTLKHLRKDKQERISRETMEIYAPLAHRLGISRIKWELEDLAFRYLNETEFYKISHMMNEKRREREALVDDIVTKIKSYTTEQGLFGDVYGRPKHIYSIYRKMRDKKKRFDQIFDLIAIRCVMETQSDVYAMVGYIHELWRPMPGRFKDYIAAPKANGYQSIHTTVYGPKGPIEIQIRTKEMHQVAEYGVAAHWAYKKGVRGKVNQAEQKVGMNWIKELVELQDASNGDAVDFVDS
The assay is described as follows: Thermal shift assay on RelSeq SYNTH. The conditions noted are these: titration 0.3–10 mM, pH 8. The procedure: as §1, with “USA).” for “USA). Assays were performed in 20 mM Tris-HCl, pH 8, containing 150 mM NaCl. The final protein concentration was kept at 0.5 mg/mL for all RelSeq constructs, and the fluorescent Protein Thermal Shift Dye (Thermo Fisher Scientific, Waltham, MA, USA) was used to monitor protein unfolding within the excitation/emission ranges 470–505/540–700 nm.”

For assay [3], the target named is T3, RelSeq HYD (residues 1–224) (Streptococcus dysgalactiae subsp. equisimilis, UniProt Q54089).
T3 construct: His-tag (C); made in house; host or cells: BL21(DE3) Escherichia coli
T3 sequence (Q54089 1-224): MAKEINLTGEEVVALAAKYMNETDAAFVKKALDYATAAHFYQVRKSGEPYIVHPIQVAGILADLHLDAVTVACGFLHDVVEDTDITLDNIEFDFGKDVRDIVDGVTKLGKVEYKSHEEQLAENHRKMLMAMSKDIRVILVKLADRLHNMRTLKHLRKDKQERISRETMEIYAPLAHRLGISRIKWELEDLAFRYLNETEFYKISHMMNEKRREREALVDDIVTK
The assay is described as follows: Thermal shift assay on RelSeq HYD. The conditions noted are these: titration 0.3–10 mM, pH 8. The procedure:
as §1, with “USA).” for “USA). Assays were performed in 20 mM Tris-HCl, pH 8, containing 150 mM NaCl. The final protein concentration was kept at 0.5 mg/mL for all RelSeq constructs, and the fluorescent Protein Thermal Shift Dye (Thermo Fisher Scientific, Waltham, MA, USA) was used to monitor protein unfolding within the excitation/emission ranges 470–505/540–700 nm.”

Assay [4] addresses T1, RelSeq 1–385. The assay is described as follows: STD-NMR with RelSeq (1–385). The conditions noted are these: fragment:protein ratio 1000:1; fragment concentration 3 mM. The procedure: (§2) The relatively weak affinity of the fragments measured by TSA directed us towards NMR methods to assess the specificity of the fragments-protein interactions. […] In particular, STD (Saturation Transfer Difference) exploits NOE effects between the protein and the ligand to map target–ligand interactions and to characterize biologically relevant complexes.
(§3) STD-NMR experiments on selected fragments vs. RelSeq constructs. Experiments were performed on a 600 MHz Bruker Avance spectrometer. All experiments were acquired at 298 and 283 K on the free ligands in deuterated phosphate buffer pH 7.4. A DMSO-d6 percentage of about 5% was added to dissolve the fragments. In 1D spectra, water suppression was achieved by excitation sculpting sequence. STD NMR experiments were performed using WATERGATE 3-9-19 pulse sequence for water suppression. On-resonance irradiation of the protein was performed at a chemical shift of −0.05 ppm and 10 ppm; off-resonance irradiation was applied at 200 ppm, where no protein signals were visible. Selective pre-saturation of the protein was achieved by a train of Gauss-shaped pulses of 49 ms in length each. STD spectra were acquired with a saturation time of 2.94 s for all compounds. Blank experiments were conducted in the absence of protein in order to avoid artifacts.

In another assay the target is T4, RelSeq SYNTH (79–385) (Streptococcus dysgalactiae subsp. equisimilis, UniProt Q54089).
T4 construct: His-tag (C); made in house; host or cells: BL21(DE3) Escherichia coli
T4 sequence (Q54089 79-385): as the sequence (Q54089 79-385) above
The assay is described as follows: STD-NMR with RelSeq SYNTH. The conditions noted are these: fragment:protein ratio 1000:1; fragment concentration 3 mM. The method, then: as §2, §3

In the next assay the target is T5, RelSeq HYD (1–224) (Streptococcus dysgalactiae subsp. equisimilis, UniProt Q54089).
T5 construct: His-tag (C); made in house; host or cells: BL21(DE3) Escherichia coli
T5 sequence (Q54089 1-224): as the sequence (Q54089 1-224) above
The assay is described as follows: STD-NMR with RelSeq HYD. The conditions noted are these: fragment:protein ratio 1000:1; fragment concentration 3 mM. The procedure:
as §2, §3

Assay [5] has as its target T1, RelSeq 1–385. Description: Tryptophan assay. The following applies: read-out: Kd RelSeq 1–385 measured by tryptophan assay (converted). The source says: With the aim of studying protein–ligand interactions between RelSeq constructs and selected fragments, we evaluated the use of different techniques, such as tryptophan assay, microscale thermophoresis (MST), isothermal calorimetry (ITC) or thermal shift assay (TSA). The tryptophan assay is based on ligand-induced conformational changes in the local environment surrounding tryptophan residues in the target protein. Irradiation at 280 nm is followed by the detection of tryptophan fluorescence emission at different wavelengths. We used this technique to measure the Kd values of the natural substrates GDP and ATP (see below), but it is not applicable in the case of fragments due to their high absorbance at 280 nm. On the other hand, the currently available protein-labeling reagents for MST were not compatible with our protein constructs. We chose TSA over ITC due to its higher potential throughput and lower amount of protein required.

The mark [6] stands for this setting: thermal shift assay, titration 0.3–10 mM, pH 8.

The results in this text go back to publication PMC9143738, “New Chemotypes for the Inhibition of (p)ppGpp Synthesis in the Quest for New Antimicrobial Compounds” (Molecules, 2022).

T1 sequence (Q54089 1-385): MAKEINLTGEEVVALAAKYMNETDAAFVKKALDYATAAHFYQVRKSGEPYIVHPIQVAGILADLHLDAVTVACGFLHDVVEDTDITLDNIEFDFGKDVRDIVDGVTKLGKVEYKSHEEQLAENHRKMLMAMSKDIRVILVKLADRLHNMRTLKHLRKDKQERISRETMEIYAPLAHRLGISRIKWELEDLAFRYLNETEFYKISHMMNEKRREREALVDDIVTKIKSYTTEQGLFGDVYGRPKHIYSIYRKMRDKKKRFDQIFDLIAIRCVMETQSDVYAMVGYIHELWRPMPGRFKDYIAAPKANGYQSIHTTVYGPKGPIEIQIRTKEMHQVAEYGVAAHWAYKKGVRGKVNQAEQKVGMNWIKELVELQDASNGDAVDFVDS

In general, Kd refers to a measure of binding affinity in units of concentration. Consider `O=C(O)c1cccc2[nH]cnc12` [B3], for which the Kd at RelSeq 1–385 [1] is 3.4 ± 0.3 mM; in assay [2] it was 4.3 ± 0.4 mM; in assay [3], 3.3 ± 0.9 mM.
Turning to `O=C(O)c1ccc2[nH]cnc2c1` [B2], the “Kd RelSeq 1–385” value on RelSeq 1–385 [1] (setting [6]) is listed as “Biphasic”. Besides, in assay [2], the “Kd RelSeq SYNTH” value is recorded as “No binding”. Moreover, the Kd in assay [3] was 1.9 ± 0.7 mM.
Consider `Nc1ccc(C(=O)O)c(Cl)c1` [A6], for which the dissociation constant Kd at RelSeq 1–385 [1] worked out at 4.3 ± 1.1 mM; in assay [2], 6.5 ± 1.2 mM. In addition, the “Kd RelSeq HYD” value in assay [3] is recorded as “No binding”.
`O=C(O)Cc1c[nH]c2ccc(F)cc12` [I4]: the Kd on RelSeq 1–385 [1] is 3.2 ± 0.7 mM; in assay [2], above 15 mM. For the same molecule, the “Kd RelSeq HYD” value in assay [3] is “No binding”.
In the case of `Nc1c(Cl)cc(Cl)cc1C(=O)O` [A2], at RelSeq 1–385 [1] (setting [6]), the “Kd RelSeq 1–385” value was “No binding”. The “Kd RelSeq SYNTH” value in assay [2] is “No binding”. The “Kd RelSeq HYD” value in assay [3] was “No binding”. In addition, the “STD-NMR interaction with RelSeq (1–385)” value on RelSeq 1–385 [4] was “did not show any significant interaction”.
With `O=C(O)c1cc2nc[nH]c2cc1C(=O)O` [B4], the “Kd RelSeq 1–385” value on RelSeq 1–385 [1] (setting [6]) was “No binding”. Moreover, the “Kd RelSeq SYNTH” value in assay [2] is reported as “No binding”. For the same molecule, in assay [3], the “Kd RelSeq HYD” value is “No binding”.
Regarding `CC(C)c1cc(C(=O)O)nc2ncnn12` [TP1], the figures for the Kd (on RelSeq 1–385 [1]; in assay [2]) were 3.4 ± 0.8 mM and 8.3 ± 1.6 mM, respectively. Besides, the “Kd RelSeq HYD” value in assay [3] is “No binding”.
Consider `O=C(O)c1ccc2nn[nH]c2c1` [BT1], for which, at RelSeq 1–385 [1] (setting [6]), the “Kd RelSeq 1–385” value is recorded as “No binding”. Moreover, the “Kd RelSeq SYNTH” value in assay [2] is “No binding”. The “Kd RelSeq HYD” value in assay [3] was “No binding”.
Take `O=C(O)c1ccc2[nH]ccc2c1` [I2]: the Kd at RelSeq 1–385 [1] stood at 2.5 ± 0.6 mM; in assay [2], 5.5 ± 0.9 mM. For the same molecule, in assay [3], the “Kd RelSeq HYD” value is reported as “No binding”.
`Nc1ccccc1C(=O)O` [A1]: the equilibrium dissociation constant (Kd) at RelSeq 1–385 [1] was 1.2 ± 0.3 mM; in assay [2], 10.8 ± 2.2 mM. The “Kd RelSeq HYD” value in assay [3] was “No binding”. For the same molecule, at RelSeq 1–385 [4], the “STD-NMR interaction with RelSeq (1–385)” value is “good interaction for the aromatic protons”. Moreover, the “STD-NMR interaction with RelSeq SYNTH (79–385)” value at RelSeq SYNTH (79–385) was “Comparable overall STD intensities”. In addition, the “STD-NMR interaction with RelSeq HYD (1–224)” value on RelSeq HYD (1–224) is “did not produce any magnetization transfer”.
For the molecule `Nc1ccc(F)cc1C(=O)O` [A3], the Kd was 1.5 ± 0.1 mM at RelSeq 1–385 [1] and 5.5 ± 0.9 mM in assay [2]. For the same molecule, the “Kd RelSeq HYD” value in assay [3] is “No binding”.
Consider `OCc1ccc2[nH]cnc2c1` [B1], for which, at RelSeq 1–385 [1] (setting [6]), the “Kd RelSeq 1–385” value was “No binding”. The “Kd RelSeq SYNTH” value in assay [2] is “No binding”. The “Kd RelSeq HYD” value in assay [3] is “No binding”. In addition, the “STD-NMR interaction with RelSeq (1–385)” value on RelSeq 1–385 [4] is on record as “did not show any significant interaction”.
Regarding `Nc1ncnc2c1ncn2[C@@H]1O[C@H](COP(=O)(O)OP(=O)(O)OP(=O)(O)O)[C@@H](O)[C@H]1O` [ATP, reference compound], the Kd is 0.49 ± 0.09 mM on RelSeq 1–385 [1] (thermal shift assay, titration 0.3–10 mM, pH 8, read-out: Kd RelSeq 1–385) and 0.39 mM on RelSeq 1–385 [5].
Take `COc1ccc(C(=O)O)cc1N` [A5]: the Kd came out at 1.1 ± 0.2 mM on RelSeq 1–385 [1] and 2.2 ± 0.4 mM in assay [2]. For the same molecule, the “Kd RelSeq HYD” value in assay [3] is “No binding”.
As to `Nc1cccc(C(=O)O)c1` [A4], the Kd on RelSeq 1–385 [1] is 6.6 ± 0.1 mM; in assay [2] it was 9.8 ± 2.8 mM. Moreover, in assay [3], the “Kd RelSeq HYD” value is on record as “No binding”.
With `O=C(O)c1ccc2cc[nH]c2c1` [I1], the Kd worked out at 6.5 ± 1.1 mM on RelSeq 1–385 [1] and 9.6 ± 1.5 mM in assay [2]. Also, in assay [3], the “Kd RelSeq HYD” value is “No binding”.
For the molecule `O=C(O)c1ccc2ocnc2c1` [BO1], the results for the Kd (at RelSeq 1–385 [1]; in assay [2]) were 2.2 ± 0.3 mM and 2.7 ± 0.6 mM, respectively. In addition, the “Kd RelSeq HYD” value in assay [3] is on record as “No binding”.
With `COc1cc(C(=O)O)ccc1N` [A7], the Kd worked out at 4 ± 0.9 mM at RelSeq 1–385 [1] and 4.3 ± 0.5 mM in assay [2]. Besides, the “Kd RelSeq HYD” value in assay [3] is reported as “No binding”.
For `O=C(O)c1cccc2[nH]ccc12` [I3], the Kd is 4 ± 0.5 mM at RelSeq 1–385 [1] and 9.9 ± 4.5 mM in assay [2]. Moreover, in assay [3], the “Kd RelSeq HYD” value is given as “No binding”.
